Patent publication US20250032625A1, “HETEROBIFUNCTIONAL MOLECULES AS TEAD INHIBITORS” (Merck Patent GmbH, priority 2021, published 2025)
Where two headings read alike, the source gives them in different places.

Tests used:
TEAD1 in NCI-H226 cells = TEAD1 in NCI-H226 cells (Homo sapiens (Human), UniProt P28347); assay: TEAD degradation in NCI-H226 cell line (immunofluorescence); assay type: cell-based
Experimental: (§1) Degradation of TEAD isoform TEAD1 by exemplary compounds which has been determined at different time points in two different cell lines, SK-HEP1 and NCI-H226: For the assay, SK-HEP1 (ATCC HTB-52) and NCI-H226 (ATCC CRL-5826) cells were treated in duplicates with the test compounds in a 10-point dose, 1:3 dilution steps, with the top concentration starting at 30 uM (final concentration in assay). After either 16 or 24 hour incubation at 37° C., 95% rH, and 5% CO2, the cells were fixed with 4% PFA and TEAD1 levels were probed using immunofluorescence. The primary antibody used was Anti-TEF1 (BD, 610293) and the secondary antibody used was Alexa Fluor® 488 Goat Anti-Mouse IgG (H+L) (Molecular Probes, A-11001). Finally, the cell nuclei were co-stained by Hoechst 33258 (Invitrogen, H-3569) and imaged using a high content imager. The amount of TEAD degradation was determined by quantifying the fluorescence intensity levels of Anti-TEF1 in each individual cell per well. DC50 was calculated using curve fitting software Genedata Screener. Cell media: The SK-HEP1 cells were cultured in the following media: MEM, +10% FCS, +1× GlutaMAX, +100 μM NEAA, +10 mM HEPES, +0.5% Pen/Strep. The NCI-H226 cells were cultured in the following media: RPMI 1640, +10% FBS, +1× GlutaMAX, +10 mM HEPES, +0.5% Pen/Strep.

TEAD1 in SK-HEP1 cells = TEAD1 in SK-HEP1 cells (Homo sapiens (Human), UniProt P28347); assay: TEAD degradation in SK-HEP1 cell line (immunofluorescence); assay type: cell-based
Experimental: as §1

[1] = 24 hours, ranges, read-out: DC50 NCI-H226
[2] = 24 hours, ranges, read-out: DC50 SK-HEP1
[3] = 24 h incubation, read-out: DC50 NCI-H226 24 h
[4] = 24 h incubation, read-out: DC50 SK-HEP1 24 h

Chain of TEAD1 in SK-HEP1 cells (P28347 whole entry): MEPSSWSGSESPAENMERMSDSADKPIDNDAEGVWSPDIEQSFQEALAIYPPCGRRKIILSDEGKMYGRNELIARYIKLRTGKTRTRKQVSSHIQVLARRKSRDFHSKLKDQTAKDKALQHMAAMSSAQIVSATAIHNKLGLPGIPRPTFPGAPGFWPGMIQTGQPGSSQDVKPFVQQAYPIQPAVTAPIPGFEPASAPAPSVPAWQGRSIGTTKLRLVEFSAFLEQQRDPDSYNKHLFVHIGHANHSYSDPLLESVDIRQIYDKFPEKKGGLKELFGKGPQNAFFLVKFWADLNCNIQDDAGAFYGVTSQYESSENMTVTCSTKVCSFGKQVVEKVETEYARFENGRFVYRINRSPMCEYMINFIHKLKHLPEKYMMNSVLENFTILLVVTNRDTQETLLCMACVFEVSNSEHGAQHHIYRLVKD
Chain of TEAD1 in NCI-H226 cells (P28347 whole entry, canonical isoform): as the sequence (P28347 whole entry) above

Row | Structure (SMILES) | DC50 (TEAD1 in NCI-H226 cells; [1]) | DC50 (TEAD1 in SK-HEP1 cells; [2]) | DC50 (TEAD1 in NCI-H226 cells; [3]) | DC50 (TEAD1 in SK-HEP1 cells; [4])
1 | Cc1ncsc1-c1ccc(CNC(=O)[C@@H]2C[C@@H](O)CN2C(=O)[C@@H](NC(=O)COCCCOCCOCCNC(=O)c2ccc3c(c2)c2cn(C)nc2n3-c2ccc(C(F)(F)F)cc2)C(C)(C)C)cc1 [Compound 74, (2S,4R)-1-[(2S)-3,3-dimethyl-2-[2-(3-{2-[2-({2-methyl-8-[4-(trifluoro-methyl)phenyl]-2H,8H-pyrazolo[3,4-b]indol-5-yl}formamido)ethoxy]-ethoxy}propoxy)acetamido]butanoyl]-4-hydroxy-N-{[4-(4-methyl-1,3-thiazol-5-yl)phenyl]methyl}pyrrolidine-2-carboxamide] | 1000 to 3000 nM | 100 to 1000 nM |  | 
2 | Cn1cc2c3cc(C(=O)NCCOCCOCCOCCNc4cccc5c4C(=O)N(C4CCC(=O)NC4=O)C5=O)ccc3n(-c3ccc(C(F)(F)F)cc3)c2n1 (centres unmarked) [Compound 50, N-(2-{2-[2-(2-{[2-(2,6-dioxopiperidin-3-yl)-1,3-dioxo-2,3-dihydro-1H-iso-indol-4-yl]amino}ethoxy)ethoxy]ethoxy}ethyl)-2-methyl-8-[4-(trifluoro-methyl)phenyl]-2H,8H-pyrazolo[3,4-b]indole-5-carboxamide] | < 100 nM | 9000 to 30000 nM |  | 
3 | CN(CCOCCOCCOCCOCCNC(=O)c1ccc2c(c1)c1cn(C)nc1n2-c1ccc(C(F)(F)F)cc1)c1cccc2c1C(=O)N(C1CCC(=O)NC1=O)C2=O (centres unmarked) [Compound 80, N-{2-[2-(2,6-dioxopiperidin-3-yl)-1,3-dioxo-2,3-dihydro-1H-isoindol-4-yl]-5,8,11,14-tetraoxa-2-azahexadecan-16-yl}-2-methyl-8-[4-(trifluoromethyl)phenyl]-2H,8H-pyrazolo[3,4-b]indole-5-carboxamide] | 100 to 1000 nM | < 100 nM |  | 
4 | Cn1cc2c3cc(C(=O)NCCOCCOCCOCCOCCNC(=O)[C@]45CCC(C)(C)C[C@H]4[C@H]4C(=O)C=C6[C@@]7(C)C=C(C#N)C(=O)C(C)(C)[C@@H]7CC[C@@]6(C)[C@]4(C)CC5)ccc3n(-c3ccc(C(F)(F)F)cc3)c2n1 [Compound 33, (4aS,6aR,6bS,8aR,12aS, 14aR, 14bS)-11-cyano-2,2,6a,6b,9,9,12a-heptamethyl-N-[14-({2-methyl-8-[4-(trifluoromethyl)phenyl]-2H,8H-pyrazolo[3,4-b]indol-5-yl}formamido)-3,6,9,12-tetraoxatetradecan-1-yl]-10,14-dioxo-1,2,3,4,4a,5,6,6a,6b,7,8,8a,9,10,12a,14,14a,14b-octadecahydropicene-4a-carboxamide] | 100 to 1000 nM | 100 to 1000 nM | 600 nM | 650 nM
5 | Cc1ncsc1-c1ccc([C@H](C)NC(=O)[C@@H]2C[C@@H](O)CN2C(=O)[C@@H](NC(=O)CCCCCc2cnnn2CCCCCCCNC(=O)c2ccc3c(c2)c2cn(C)nc2n3-c2ccc(C(F)(F)F)cc2)C(C)(C)C)cc1 [Compound 38, (2S,4R)-1-[(2S)-3,3-dimethyl-2-(6-{1-[7-({2-methyl-8-[4-(trifluoromethyl)-phenyl]-2H,8H-pyrazolo[3,4-b]indol-5-yl}formamido)heptyl]-1H-1,2,3-triazol-5-yl}hexanamido)butanoyl]-4-hydroxy-N-[(1S)-1-[4-(4-methyl-1,3-thiazol-5-yl)phenyl]ethyl]pyrrolidine-2-carboxamide] | 100 to 1000 nM | 100 to 1000 nM |  | 
6 | Cc1ncsc1-c1ccc(CNC(=O)[C@@H]2C[C@@H](O)CN2C(=O)[C@@H](NC(=O)CCCCCc2cnnn2CCCCCCCNC(=O)c2ccc3c(c2)c2cn(C)nc2n3-c2ccc(C(F)(F)F)cc2)C(C)(C)C)cc1 [Compound 37, (2S,4R)-1-[(2S)-3,3-dimethyl-2-(6-{1-[7-({2-methyl-8-[4-(trifluoromethyl)-phenyl]-2H,8H-pyrazolo[3,4-b]indol-5-yl}formamido)heptyl]-1H-1,2,3-triazol-5-yl}hexanamido)butanoyl]-4-hydroxy-N-{[4-(4-methyl-1,3-thiazol-5-yl)phenyl]methyl}pyrrolidine-2-carboxamide] | 100 to 1000 nM | 100 to 1000 nM |  | 
7 | Cn1cc2c3cc(C(=O)NCCOCCOCCOCCOCCOCCOCCNc4cccc5c4C(=O)N(C4CCC(=O)NC4=O)C5=O)ccc3n(-c3ccc(C(F)(F)F)cc3)c2n1 (centres unmarked) [Compound 87, N-(20-{[2-(2,6-dioxopiperidin-3-yl)-1,3-dioxo-2,3-dihydro-1H-isoindol-4-yl]amino}-3,6,9,12,15,18-hexaoxaicosan-1-yl)-2-methyl-8-[4-(trifluoromethyl)phenyl]-2H,8H-pyrazolo[3,4-b]indole-5-carboxamide] | < 100 nM | < 100 nM |  | 
8 | Cc1ncsc1-c1ccc(CNC(=O)[C@@H]2C[C@@H](O)CN2C(=O)[C@@H](NC(=O)COCCOCCOCCNC(=O)c2ccc3c(c2)c2cn(C)nc2n3-c2ccc(C(F)(F)F)cc2)C(C)(C)C)cc1 [Compound 52] | 100 to 1000 nM | 100 to 1000 nM |  | 
9 | Cc1ncsc1-c1ccc(CNC(=O)[C@@H]2C[C@@H](O)CN2C(=O)[C@@H](NC(=O)CCCCCCOCCOCCOCCNC(=O)c2ccc3c(c2)c2cn(C)nc2n3-c2ccc(C(F)(F)F)cc2)C(C)(C)C)cc1 [Compound 60, (2S,4R)-1-[(2S)-3,3-dimethyl-2-[7-(2-{2-[2-({2-methyl-8-[4-(trifluoro-methyl)phenyl]-2H,8H-pyrazolo[3,4-b]indol-5-yl}formamido)ethoxy]-ethoxy}ethoxy)heptanamido]butanoyl]-4-hydroxy-N-{[4-(4-methyl-1,3-thiazol-5-yl)phenyl]methyl}pyrrolidine-2-carboxamide] | 100 to 1000 nM | 100 to 1000 nM |  | 
10 | Cc1ncsc1-c1ccc(CNC(=O)[C@@H]2C[C@@H](O)CN2C(=O)[C@@H](NC(=O)CCCCCCCCCOCCOCCNC(=O)c2ccc3c(c2)c2cn(C)nc2n3-c2ccc(C(F)(F)F)cc2)C(C)(C)C)cc1 [Compound 56] | 100 to 1000 nM | 100 to 1000 nM |  | 
11 | Cn1cc2c3cc(C(=O)NCCOCCOCCOCCOCCOCCNc4cccc5c4C(=O)N(C4CCC(=O)NC4=O)C5=O)ccc3n(-c3ccc(C(F)(F)F)cc3)c2n1 (centres unmarked) [Compound 47, N-(17-{[2-(2,6-dioxopiperidin-3-yl)-1,3-dioxo-2,3-dihydro-1H-isoindol-4-yl]amino}-3,6,9,12,15-pentaoxaheptadecan-1-yl)-2-methyl-8-[4-(trifluoro-methyl)phenyl]-2H,8H-pyrazolo[3,4-b]indole-5-carboxamide] | < 100 nM | < 100 nM |  | 
12 | Cn1cc2c3cc(C(=O)NCC#Cc4ccc(N5CCN(CCCC(=O)Nc6ccc7c(c6)CN(C6CCC(=O)NC6=O)C7=O)CC5)nc4)ccc3n(-c3ccc(C(F)(F)F)cc3)c2n1 (centres unmarked) [Compound 19, N-(3-{6-[4-(3-{[2-(2,6-dioxopiperidin-3-yl)-1-oxo-2,3-dihydro-1H-isoindol-5-yl]carbamoyl}propyl)piperazin-1-yl]pyridin-3-yl}prop-2-yn-1-yl)-2-methyl-8-[4-(trifluoromethyl)phenyl]-2H,8H-pyrazolo[3,4-b]indole-5-carboxamide] | < 100 nM | < 100 nM | 70 nM | 40 nM
13 | Cn1cc2c3cc(C(=O)NCCOCCOCCOCCOCCOc4cccc5c4C(=O)N(C4CCC(=O)NC4=O)C5=O)ccc3n(-c3ccc(C(F)(F)F)cc3)c2n1 (centres unmarked) [Compound 16, N-(14-{[2-(2,6-dioxopiperidin-3-yl)-1,3-dioxo-2,3-dihydro-1H-isoindol-4-yl]oxy}-3,6,9,12-tetraoxatetradecan-1-yl)-2-methyl-8-[4-(trifluoromethyl)phenyl]-2H,8H-pyrazolo[3,4-b]indole-5-carboxamide] | 100 to 1000 nM | 100 to 1000 nM | 600 nM | 250 nM
14 | Cc1ncsc1-c1ccc(CNC(=O)[C@@H]2C[C@@H](O)CN2C(=O)[C@@H](NC(=O)CCCCCC(=O)N(C)CCOCCOCCNC(=O)c2ccc3c(c2)c2cn(C)nc2n3-c2ccc(C(F)(F)F)cc2)C(C)(C)C)cc1 [Compound 53, N-[(2S)-1-[(2S,4R)-4-hydroxy-2-({[4-(4-methyl-1,3-thiazol-5-yl)phenyl]-methyl}carbamoyl)pyrrolidin-1-yl]-3,3-dimethyl-1-oxobutan-2-yl]-N′-methyl-N′-(2-{2-[2-({2-methyl-8-[4-(trifluoromethyl)phenyl]-2H,8H-pyrazolo[3,4-b]indol-5-yl}formamido)ethoxy]ethoxy}ethyl) heptanediamide] | 100 to 1000 nM | 100 to 1000 nM |  | 
15 | Cn1cc2c3cc(C(=O)NCCOCCOCCOCCOCCNc4cccc5c4C(=O)N(C4CCC(=O)NC4=O)C5=O)ccc3n(-c3ccc(C(F)(F)F)cc3)c2n1 (centres unmarked) [Compound 28, N-(14-{[2-(2,6-dioxopiperidin-3-yl)-1,3-dioxo-2,3-dihydro-1H-isoindol-4-yl]amino}-3,6,9,12-tetraoxatetradecan-1-yl)-2-methyl-8-[4-(trifluoromethyl)phenyl]-2H,8H-pyrazolo[3,4-b]indole-5-carboxamide] | < 100 nM | < 100 nM | 90 nM | 70 nM
